Measured values: patent publication US20240182945A1, “PRODUCTS FOR REGULATION OF EUKARYOTIC AND MICROBIAL CELLS GROWTH” (priority 2021, published 2024)

What was measured:
[1] = tested on: bacteria of sputum from patients with lung diseases; assay: Standard antibiotic susceptibility study using the microbroth dilution method (Algorithm #3); format: cell-based; also: key: '+'—presence of bacterial growth, antibiotic ineffective; '−'—absence of bacterial growth, antibiotic effective
Source text: Algorithm #3—Standard antibiotic susceptibility study using the microbroth dilution method.

[2] = tested on: MIX—PP +BM (P. aeruginosa with microbial modulators); assay: Growth of mix PP + MM (original sputum) on antibiotic-supplemented Columbia agar; format: cell-based; conditions: Bacterial set #2; Cefepime (16 μg/mL); Columbia agar with erythrocytes 5%, 24 h at 37 C
[3] = tested on: S.aureus (PP) and MM in sputum from children with pneumonia; assay: Degree of eradication of PP and MM on Columbia agar with antibiotic at concentrations achievable at the site of infection; format: cell-based; design: key to Degree of primary pathogen eradication, evaluation of ABEPP: % of primary pathogen (PP) eliminated
Method: We next tried to select antibiotics based on building a probability model. Antibiotic efficacy was evaluated based on a novel parameters: • ABEPPMM100—antibiotic concentration that is required for the elimination of 100% “complex” PP+MM. • ABEPPMM99—antibiotic concentration that is required for the elimination of 99% “complex” PP+MM.
ABEPPMM90—antibiotic concentration that is required for the elimination of 90% “complex” PP+MM.
ABEPPMM50—antibiotic concentration that is required for the elimination of 50% “complex” PP+MM.
ABEPP100—antibiotic concentration that affecting on “complex” PP+MM is required for the elimination of 100% PP.
ABEPP99—antibiotic concentration that affecting on “complex” PP+MM is required for the elimination of 99% PP.
ABEPP90—antibiotic concentration that affecting on “complex” PP+MM is required for the elimination of 90% PP.
ABEPP50—antibiotic concentration that affecting on “complex” PP+MM is required for the elimination of 50% PP.
We used sputum from children with pneumonia, with S.aureus as confirmed PP. Patient 1—child • Patient 2—child • Patient 3—child

[4] = tested on: bacteria of the biosample (persisters); assay: Neutropenic mice instilled with biosample and treated with antibiotic for 72 h, microbial growth in organs and blood; format: in vivo; conditions: neutropenic C57BL/6 mice treated for 72 h, agar with 100 ug/mL of the antibiotic
Method: Next, we confirmed that antibiotics selected with proposed algorithm are effective. Adult C57BL/6 mice were rendered neutropenic by injecting cyclophosphamide subcutaneously 4 days before infection (150 mg/kg of body weight), 1 day before infection (100 mg/kg), and 1 day after infection (100 mg/kg). Mice were anesthetized with 2% isoflurane and orally instilled with biosample (stored at +4 C). Briefly, nares were blocked, and mice aspirated 50 μL of the biosample into the lungs while being held vertically for 60 s.

[5] = cited from earlier work
A. ursingii = assay: Growth of microbial modulator alone on antibiotic-supplemented Columbia agar; format: cell-based; conditions: Bacterial set #2; Cefepime (16 μg/mL); Columbia agar with erythrocytes 5%, 24 h at 37 C
R. dentocariosa = assay: as above; format: cell-based; conditions: Bacterial set #2; Cefepime (16 μg/mL); Columbia agar with erythrocytes 5%, 24 h at 37 C
B. pumilus = assay: as above; format: cell-based; conditions: Bacterial set #2; Cefepime (16 μg/mL); Columbia agar with erythrocytes 5%, 24 h at 37 C
P. aeruginosa = assay: Growth of primary pathogen alone on antibiotic-supplemented Columbia agar; format: cell-based; conditions: Bacterial set #2; Cefepime (16 μg/mL); Columbia agar with erythrocytes 5%, 24 h at 37 C
Method: Four sputum samples from patients with lung infections were used. Pure bacterial culture of each microorganisms was obtained by routine microbiological methods.
In this case this antibiotic at MIC of 16 ug/mL was used in the following studies. PP alone, or Microbial Modulators (MM) alone or the original sputum were plated on the wells of 24 well plate filled with nutrient Columbia agar supplemented with erythrocytes 5% and supplemented with antibiotics taken as MIC determined against PP, but not more than 16 μg/mL and incubated 24 h at 37 C.

[6] = Patient 1, C0-1 h, 24 h of growth
[7] = Patient 1, C0-2 h, 24 h of growth
[8] = Patient 1, C0-3 h, 24 h of growth
[9] = Patient 1, C0-4 h, 24 h of growth
[10] = Patient 1, C0-6 h, 24 h of growth
[11] = Patient 1, C0-8 h, 24 h of growth
[12] = Patient 1, C0-12 h, 24 h of growth
[13] = Patient 1, C0-24 h, 24 h of growth
[14] = Patient 1, C2-3 h, 24 h of growth
[15] = Patient 1, C3-4 h, 24 h of growth
[16] = Patient 1, C4-6 h, 24 h of growth
[17] = Patient 1, C6-8 h, 24 h of growth
[18] = Patient 1, C8-12 h, 24 h of growth
[19] = Patient 1, C12-24 h, 24 h of growth
[20] = Patient 1, Cmax × 2, 24 h of growth
[21] = Patient 2, C0-3 h, 24 h of growth
[22] = Patient 2, C0-4 h, 24 h of growth
[23] = Patient 2, C0-6 h, 24 h of growth
[24] = Patient 2, C0-8 h, 24 h of growth
[25] = Patient 2, C0-12 h, 24 h of growth
[26] = Patient 2, C0-24 h, 24 h of growth
[27] = Patient 2, C3-4 h, 24 h of growth
[28] = Patient 2, C4-6 h, 24 h of growth
[29] = Patient 2, C6-8 h, 24 h of growth
[30] = Patient 2, C8-12 h, 24 h of growth
[31] = Patient 2, C12-24 h, 24 h of growth
[32] = Patient 3, C0-3 h, 24 h of growth
[33] = Patient 3, C0-4 h, 24 h of growth
[34] = Patient 3, C0-6 h, 24 h of growth
[35] = Patient 3, C0-8 h, 24 h of growth
[36] = Patient 3, C0-12 h, 24 h of growth
[37] = Patient 3, C0-24 h, 24 h of growth
[38] = Patient 3, C3-4 h, 24 h of growth
[39] = Patient 3, C4-6 h, 24 h of growth
[40] = Patient 3, C6-8 h, 24 h of growth
[41] = Patient 3, C8-12 h, 24 h of growth
[42] = Patient 3, C12-24 h, 24 h of growth

SMILES: CO/N=C(\C(=O)N[C@@H]1C(=O)N2C(C(=O)[O-])=C(C[N+]3(C)CCCC3)CS[C@H]12)c1csc(N)n1 [Cefepime]
- ATB efficacy [1]: +
- microbial growth, MIX (PP + MM) [2]: −
- Degree of primary pathogen eradication, evaluation of ABEPP [3, 6]: 100
- Degree of primary pathogen eradication, evaluation of ABEPPMM [3, 6]: 100
- Degree of primary pathogen eradication, evaluation of ABEPP [3, 7]: 100
- Degree of primary pathogen eradication, evaluation of ABEPPMM [3, 7]: 100
- Degree of primary pathogen eradication, evaluation of ABEPP [3, 8]: 100
- Degree of primary pathogen eradication, evaluation of ABEPPMM [3, 8]: 100
- Degree of primary pathogen eradication, evaluation of ABEPP [3, 9]: 100
- Degree of primary pathogen eradication, evaluation of ABEPPMM [3, 9]: 100
- Degree of primary pathogen eradication, evaluation of ABEPP [3, 10]: 100
- Degree of primary pathogen eradication, evaluation of ABEPPMM [3, 10]: 100
- Degree of primary pathogen eradication, evaluation of ABEPP [3, 11]: 50
- Degree of primary pathogen eradication, evaluation of ABEPPMM [3, 11]: 50
- Degree of primary pathogen eradication, evaluation of ABEPP [3, 12]: 00
- Degree of primary pathogen eradication, evaluation of ABEPPMM [3, 12]: 00
- Degree of primary pathogen eradication, evaluation of ABEPP [3, 13]: 0
- Degree of primary pathogen eradication, evaluation of ABEPPMM [3, 13]: 0
- Degree of primary pathogen eradication, evaluation of ABEPP [3, 14]: 100
- Degree of primary pathogen eradication, evaluation of ABEPPMM [3, 14]: 100
- Degree of primary pathogen eradication, evaluation of ABEPP [3, 15]: 100
- Degree of primary pathogen eradication, evaluation of ABEPPMM [3, 15]: 100
- Degree of primary pathogen eradication, evaluation of ABEPP [3, 16]: 100
- Degree of primary pathogen eradication, evaluation of ABEPPMM [3, 16]: 100
- Degree of primary pathogen eradication, evaluation of ABEPP [3, 17]: 100
- Degree of primary pathogen eradication, evaluation of ABEPPMM [3, 17]: 100
- Degree of primary pathogen eradication, evaluation of ABEPP [3, 18]: 50
- Degree of primary pathogen eradication, evaluation of ABEPPMM [3, 18]: 00
- Degree of primary pathogen eradication, evaluation of ABEPP [3, 19]: 00
- Degree of primary pathogen eradication, evaluation of ABEPPMM [3, 19]: 00
- Degree of primary pathogen eradication, evaluation of ABEPP [3, 20]: 100
- Degree of primary pathogen eradication, evaluation of ABEPPMM [3, 20]: 100
- Degree of primary pathogen eradication, evaluation of ABEPP [3, 21]: 90
- Degree of primary pathogen eradication, evaluation of ABEPPMM [3, 21]: 90
- Degree of primary pathogen eradication, evaluation of ABEPP [3, 22]: 50
- Degree of primary pathogen eradication, evaluation of ABEPPMM [3, 22]: 50
- Degree of primary pathogen eradication, evaluation of ABEPP [3, 23]: 50
- Degree of primary pathogen eradication, evaluation of ABEPPMM [3, 23]: 50
- Degree of primary pathogen eradication, evaluation of ABEPP [3, 24]: 50
- Degree of primary pathogen eradication, evaluation of ABEPPMM [3, 24]: 50
- Degree of primary pathogen eradication, evaluation of ABEPP [3, 25]: 50
- Degree of primary pathogen eradication, evaluation of ABEPPMM [3, 25]: 50
- Degree of primary pathogen eradication, evaluation of ABEPP [3, 26]: 0
- Degree of primary pathogen eradication, evaluation of ABEPPMM [3, 26]: 0
- Degree of primary pathogen eradication, evaluation of ABEPP [3, 27]: 50
- Degree of primary pathogen eradication, evaluation of ABEPPMM [3, 27]: 50
- Degree of primary pathogen eradication, evaluation of ABEPP [3, 28]: 50
- Degree of primary pathogen eradication, evaluation of ABEPPMM [3, 28]: 50
- Degree of primary pathogen eradication, evaluation of ABEPP [3, 29]: 50
- Degree of primary pathogen eradication, evaluation of ABEPPMM [3, 29]: 50
- Degree of primary pathogen eradication, evaluation of ABEPP [3, 30]: 50
- Degree of primary pathogen eradication, evaluation of ABEPPMM [3, 30]: 50
- Degree of primary pathogen eradication, evaluation of ABEPP [3, 31]: 0
- Degree of primary pathogen eradication, evaluation of ABEPPMM [3, 31]: 0
- Degree of primary pathogen eradication, evaluation of ABEPP [3, 32]: 90
- Degree of primary pathogen eradication, evaluation of ABEPPMM [3, 32]: 90
- Degree of primary pathogen eradication, evaluation of ABEPP [3, 33]: 90
- Degree of primary pathogen eradication, evaluation of ABEPPMM [3, 33]: 90
- Degree of primary pathogen eradication, evaluation of ABEPP [3, 34]: 90
- Degree of primary pathogen eradication, evaluation of ABEPPMM [3, 34]: 90
- Degree of primary pathogen eradication, evaluation of ABEPP [3, 35]: 0
- Degree of primary pathogen eradication, evaluation of ABEPPMM [3, 35]: 0
- Degree of primary pathogen eradication, evaluation of ABEPP [3, 36]: 0
- Degree of primary pathogen eradication, evaluation of ABEPPMM [3, 36]: 0
- Degree of primary pathogen eradication, evaluation of ABEPP [3, 37]: 0
- Degree of primary pathogen eradication, evaluation of ABEPPMM [3, 37]: 0
- Degree of primary pathogen eradication, evaluation of ABEPP [3, 38]: 90
- Degree of primary pathogen eradication, evaluation of ABEPPMM [3, 38]: 90
- Degree of primary pathogen eradication, evaluation of ABEPP [3, 39]: 90
- Degree of primary pathogen eradication, evaluation of ABEPPMM [3, 39]: 90
- Degree of primary pathogen eradication, evaluation of ABEPP [3, 40]: 0
- Degree of primary pathogen eradication, evaluation of ABEPPMM [3, 40]: 0
- Degree of primary pathogen eradication, evaluation of ABEPP [3, 41]: 0
- Degree of primary pathogen eradication, evaluation of ABEPPMM [3, 41]: 0
- Degree of primary pathogen eradication, evaluation of ABEPP [3, 42]: 0
- Degree of primary pathogen eradication, evaluation of ABEPPMM [3, 42]: 0
- Number of animals with positive microbial growth on the agar with antibiotics/total number of animals per group ([4]; Blood): 4/8
- Number of animals with positive microbial growth on the agar with antibiotics/total number of animals per group ([4]; Liver): 2/8
- Number of animals with positive microbial growth on the agar with antibiotics/total number of animals per group ([4]; Lungs): 3/8
- lung concentration after 8 h of administration ([5]; 8 h): 23 µg/mL
- lung concentration after 12 h of administration ([5]; 12 h): 8 µg/mL
- microbial growth, AU (BM alone) (A. ursingii): +
- microbial growth, RD (BM alone) (R. dentocariosa): −
- microbial growth, BP (BM alone) (B. pumilus): +
- microbial growth, PA (PP alone) (P. aeruginosa): +
